This note sets out measurements from PMC6201930 (PLoS ONE, 2018).

Where “and” joins values, the source holds several entries; their conditions need not be identical. Equal entries are not always repeated. Entries after “also recorded” stand apart in the source; their conditions may differ.

Data set [1] in a line: Cytotoxicity in myoblasts. Conditions: mouse. The source says: (§1) When considering compounds for potential readthrough therapy it is important to monitor cellular and animal safety. In order to determine the most promising compounds to further evaluate in in vivo safety, we measured cytotoxicity in two different cell types. We used activated human peripheral blood mononuclear cells (PBMCs) (Table 2 and Fig 2D and 2E). PBMCs are a primary cell that when activated with phytohaemagglutinin (PHA) expand quickly and are commonly used as an in vitro surrogate for rapidly growing cells in the human body to evaluate cytotoxicity. Prior to advancing compounds into human studies, safety evaluation in rodents is performed. As an in vitro surrogate for rodent toxicity, we used primary mouse myoblasts.

For the next data set, the system named is primary mouse myoblasts. As to the kind of experiment: Cytotoxicity in myoblasts. The settings on record: read-out: Myoblast CC50; individual determinations (S1 File).
Description: as §1

Another data set deals with Male Sprague Dawley rats. As to the kind of experiment: Fourteen day safety study in rats. It is filed as in vivo. Conditions: for Animals completed study: 6 rats per group; for hematology: numbers of red and white blood cells or platelets vs vehicle: 14 days dosing, all dose groups; for accumulation over time (toxicokinetics): Day 1 and Day 14; for histopathology of liver and bone marrow: end of the 14 day dosing period; for urine lipocalin / urine albumin, clusterin, cystatin C and osteopontin: highest dose groups: G418 20 mg/kg, gentamicin X2 40 mg/kg; for urine albumin, clusterin, cystatin C and osteopontin: normalized to urinary creatinine. The method, then:
To evaluate in vivo safety we administered the compounds daily to rats (n = 6 rats per dose group) by subcutaneous injection for 14 days.
Male Sprague Dawley rats were purchased from Charles River Laboratories, where 6 weeks old at time of study initiation. Rats were group-housed (3 rats per box) in solid bottom cages. Food and water were provided ad libitum. Rats were dosed daily by subcutaneous injection. […] Blood was collected for serum chemistry by retro-orbital bleeds on Day 7 and by terminal cardiac puncture on Day 14. For urine collection, rats were housed in metabolic cages for 6 hours. Toxicokinetics was evaluated on Day 1 and Day 14 (S4 Fig). Blood was obtained by retro-orbital bleeding at 0, 0.25, 0.75, 1.5, 4, 7, 24 hours post-dose. Rats were euthanized on Day 14, 24 hours after the last dose. Body weights were measured on Days 3, 6, 9, 12 and 14. Endpoints to evaluate kidney function included serum chemistry (BUN and creatinine; Day 7 and Day 14), urine biomarkers (albumin, clusterin, cystatin C, osteopontin, KIM1, and alpha GST; Day 6 and Day 9), hematology (Day 14) and histopathology. For histopathology, kidney, liver, and bone marrow were evaluated. Samples collected for histopathology were sectioned at 5 μm, stained with hematoxylin and eosin (H&E), and examined by a board certified veterinary pathologist. BUN, creatine and hematology parameters were measured using a HESKA veterinary system (Loveland, CO). Urine samples were assayed using MSD electrochemiluminescent immunoassay. Samples were analyzed in triplicate using a Sector Imager 6000 instrument (MSD, Rockville, Maryland). Kits used were the Rat Kidney Injury Panel 1 (albumin, Kim-1, NGAL/lipocalin-2, osteopontin), the Argutus Acute Kidney Injury Panel (α-GST, GSTYb1, RPA-1) and the Clusterin Test Kit (MSD), according to the manufacturer’s instructions. Urinary biomarker concentrations were normalized to urinary creatinine to account for differences in urine production and flow rates.

A short description of data set [2]: Neuromast toxicity assay (DASPEI staining). The settings on record: zebrafish, zebrafish embryos 5 dpf, neuromasts (hair cells), other: embryos exposed to the drug in 24-well plates, zebrafish embryos 5 dpf.
Description: (§2) All neuromast cytotoxicity assays were done at Biobide–BBD Biophenix SL (Gipuzkoa, Spain). […] Compounds were tested at 5 doses. After 24 hours of exposure embryos were incubated in DASPEI (2-(4-(dimethylamino)styryl) -N-Ethylpyridinium Iodide) for neuromast staining. Images of each embryo were taken and neuromasts counted. A compound was classified as ototoxic when the number of neuromasts in the treated group was less than that in the untreated control group (One Way ANOVA, multiple comparisons vs. vehicle).
A further data set can be described thus: in vivo. The settings on record: zebrafish.
Where [3] appears, read: 10 mg/kg daily s.c. 14 days, 6 kidneys examined.
Where [4] appears, read: 20 mg/kg daily s.c. 14 days, kidneys examined: X2 6, G418 3.
The mark [5] stands for this setting: 40 mg/kg daily s.c. 14 days, 6 kidneys examined, listed as X2.
Setting [6] is: 40 mg/kg daily s.c. 14 days, 6 kidneys examined, listed as gentamicin X2.

Description for in vivo: as §2

With `CN[C@@H]1[C@@H](O)[C@@H](O[C@@H]2[C@@H](O)[C@H](O[C@H]3O[C@H](CO)[C@@H](O)[C@H](O)[C@H]3N)[C@@H](N)C[C@H]2N)OC[C@]1(C)O` (stereo in doubt) [Gentamicin X2, gentamicin X2], the CC50 in data set [1] (primary mouse myoblasts, Myoblast (CC50), average ± SD) is 834 ± 623 µM; in data set [1] (primary mouse myoblasts, Myoblast CC50, AVERAGE (S1 File)) it was 834 µM; in the data set with primary mouse myoblasts, 614 µM and 402 µM and 481 µM and 324 µM and 1880 µM and 1300 µM. In addition, the Animals completed study in the data set with Male Sprague Dawley rats (10 mg/kg daily s.c. 14 days), in the data set on Male Sprague Dawley rats (20 mg/kg daily s.c. 14 days) and in the data set with Male Sprague Dawley rats (40 mg/kg daily s.c. 14 days) was 6 each time. For the same molecule, the “Kidneys: Mineralization (number of kidneys)” value (“Kidneys: Mineralization” below) with Male Sprague Dawley rats (setting [3]) was 0; with Male Sprague Dawley rats (setting [4]) it was 0; in the data set with Male Sprague Dawley rats (40 mg/kg daily s.c. 14 days, 6 kidneys examined), 0. For the same molecule, the “Kidneys: Pelvic dilation (number of kidneys)” value in the data set with Male Sprague Dawley rats (setting [3]) was 0; with Male Sprague Dawley rats (setting [4]), 1; with Male Sprague Dawley rats (setting [5]) it was 4; with Male Sprague Dawley rats (setting [6]), “four of six kidneys”. For the same molecule, the “Kidneys: Tubular necrosis (number of kidneys)” value in the data set with Male Sprague Dawley rats (setting [3]) is listed as 2; in the data set on Male Sprague Dawley rats (setting [4]) it was 2; in the data set with Male Sprague Dawley rats (setting [5]), 4; with Male Sprague Dawley rats (setting [6]), “four of six kidneys”. Further, the “effect on body weight” value in the data set with Male Sprague Dawley rats (20 mg/kg daily s.c., 14 days) is reported as “did not affect body weight”; with Male Sprague Dawley rats (40 mg/kg daily s.c., 14 days), “only slightly reduced body weight”. In the data set with Male Sprague Dawley rats, the “hematology: numbers of red and white blood cells or platelets vs vehicle” value was “no change; also recorded: no obvious differences across groups”. In addition, in the data set on Male Sprague Dawley rats, the “accumulation over time (toxicokinetics)” value was “no accumulation”. Further, in the data set on Male Sprague Dawley rats (all dose levels, 14 days daily s.c.), the tolerability result was “well-tolerated at all dose levels”. Also, the “rats found dead or euthanized” value in the data set on Male Sprague Dawley rats (any of the three dose groups (10, 20, 40 mg/kg), 14 days) is “No rats were found dead or euthanized”. For the same molecule, the “histopathology of liver and bone marrow” value with Male Sprague Dawley rats was “No histopathology findings”. Moreover, the urine lipocalin result with Male Sprague Dawley rats is recorded as “not affected”. The “urine albumin, clusterin, cystatin C and osteopontin” value with Male Sprague Dawley rats is reported as “not increased”. The CC50 at 24 h in data set [2] (Neuromast (CC50), 24 hours exposure, maximum of two measurements) came to 14 ± 7 µM; in data set [2] (Neuromast CC50, AVERAGE (S1 File)), 13.9 µM.
For the molecule `CN[C@@H]1[C@@H](O)[C@@H](O[C@@H]2[C@@H](O)[C@H](O[C@H]3O[C@H]([C@@H](C)O)[C@@H](O)[C@H](O)[C@H]3N)[C@@H](N)C[C@H]2N)OC[C@]1(C)O` [G418, reference compound], the CC50 in data set [1] (Myoblast (CC50), average ± SD) came out at 166 ± 100 µM. The molecule also came in with a CC50 in data set [1] (Myoblast CC50, AVERAGE (S1 File)) of 166 µM. The molecule also had an Animals completed study with Male Sprague Dawley rats (10 mg/kg daily s.c. 14 days) of 6. Moreover, in the data set with Male Sprague Dawley rats (setting [3]), the “Kidneys: Mineralization” value was 1, the “Kidneys: Pelvic dilation (number of kidneys)” value worked out at 2 and the “Kidneys: Tubular necrosis (number of kidneys)” value was 4. For the same molecule, the Animals completed study in the data set with Male Sprague Dawley rats (20 mg/kg daily s.c. 14 days) stood at 3. For the same molecule, the “Kidneys: Mineralization” value with Male Sprague Dawley rats (setting [4]) was determined as 0. Also, in the data set on Male Sprague Dawley rats (20 mg/kg daily s.c., 14 days, 6 rats), the “rats euthanized or found dead” value is “three rats were either euthanized or found dead”. For the same molecule, the “creatinine and blood urea nitrogen (BUN) levels” value with Male Sprague Dawley rats (20 mg/kg, Days 7 and 14, p<0.05 vs vehicle) is listed as “significantly elevated”. Besides, in the data set on Male Sprague Dawley rats, the “hematology: numbers of red and white blood cells or platelets vs vehicle” value is “no obvious differences across groups”; the “accumulation over time (toxicokinetics)” value is recorded as “no accumulation”; the “histopathology of liver and bone marrow” value is on record as “No histopathology findings”; the urine lipocalin entry is “not affected”. Further, the “urine albumin, clusterin, cystatin C and osteopontin” value in the data set on Male Sprague Dawley rats is on record as “increased”. For the same molecule, in the data set on Male Sprague Dawley rats (G418 20 mg/kg compared to gentamicin X2 40 mg/kg), the “urine alpha-GST levels” value is on record as “greatest decrease”. This molecule came in with a CC50 in “in vivo” (Neuromast (CC50), zebrafish embryos 5 dpf, 24 hours exposure, maximum of two measurements) of 2.8 ± 1.2 µM. Further, in the data set “in vivo” (Neuromast CC50, individual determinations (S1 File)), the CC50 was 1.9 µM.
